In data set [1] the test system is A549. The experiment in a line: Antitumor activity against human A549 cells treated chicken chorioallantoic membrane assessed as reduction in tumour mass at 200 uM measured after 3 to 8 days. In kind it is functional, cell-based. Particulars: time day 3-8.
The subject of data set [2] is A549. The experiment in a line: Antitumor activity against human A549 cells treated chicken chorioallantoic membrane assessed as increase in apoptosis cells in tumour mass at 200 uM by TUNEL staining based confocal microscopic analysis. In kind it is functional, cell-based.
The test system of data set [3] is RAW264.7. The experiment in a line: Cytotoxicity against mouse RAW264.7 cells assessed as reduction in cell viability at 1 uM incubated for 12 hrs. The settings on record: raw264.7, 12 h. In kind it is cell-based.
The test system of data set [4] is RAW264.7. The experiment in a line: Cytotoxicity against mouse RAW264.7 cells assessed as reduction in cell viability at 5 uM incubated for 12 hrs relative to control. It is filed as cell-based. The settings on record: raw264.7, 12 h.
For data set [5], the system named is RAW264.7. The experiment in a line: Cytotoxicity against mouse RAW264.7 cells assessed as reduction in cell viability at 10 uM incubated for 12 hrs relative to control. In kind it is cell-based. The settings on record: raw264.7, 12 h.
Data set [6] deals with RAW264.7. Description: Photostability of compound in mouse RAW264.7 cells at 1 uM measured for 10 to 120 secs. Particulars: raw264.7, 1 µM, time 10-120 sec. In kind it is ADME, cell-based.
For data set [7], the system named is A549. Description: Induction of morphological changes in human A549 cells assessed as appearance of round shaped cells at 1 uM incubated for 48 hrs. In kind it is functional, cell-based.
Data set [8] deals with A549. Description: Cytotoxicity against human A549 cells assessed as reduction in cell growth at 1 to 10 uM incubated for 24 to 48 hrs. It is filed as functional, cell-based. Particulars: dose microM 1-10, time hrs 24-48.
For data set [9], the system named is A549. The experiment in a line: Cytotoxicity against human A549 cells assessed as reduction in cell growth incubated for 24 to 48 hrs. In kind it is functional, cell-based.
Data set [10] concerns A549. Description: Induction of necrosis in human A549 cells by LDH assay. In kind it is functional, cell-based.
Data set [11] concerns A549. The experiment in a line: Induction of morphological changes in human A549 cells assessed as nuclear condensation at 0.5 to 10 uM incubated for 48 hrs by AO and Hoechst 33258 staining based assay. In kind it is functional, cell-based. Particulars: dose microM 0.5-10, time 48.0 hrs.
For data set [12], the system named is A549. Description: Induction of morphological changes in human A549 cells assessed as nuclear fragmentation at 0.5 to 10 uM incubated for 48 hrs by AO and Hoechst 33258 staining based assay. Particulars: dose microM 0.5-10, time 48.0 hrs. It is filed as functional, cell-based.
Data set [13] relates to A549. Description: Induction of apoptosis in human A549 cells assessed as increase in cleaved PARP1 level incubated for 24 hrs by Western blot analysis. It is filed as functional, cell-based. On the technique in general: Immunoblotting shows a protein as a band on a membrane.
Data set [14] relates to HUVEC. Description: Cytotoxicity against HUVEC assessed as reduction in cell viability. In kind it is cell-based. The settings on record: human.
For data set [15], the system named is A549. Description: Antitumor activity against human A549 cells treated chicken chorioallantoic membrane assessed as reduction in tumour mass at 50 to 100 uM measured after 3 to 8 days. In kind it is functional, cell-based. The settings on record: dose microM 50-100, time day 3-8.
In data set [16] the test system is A549. Description: Antitumor activity against human A549 cells treated chicken chorioallantoic membrane assessed as increase in apoptosis cells in tumour mass at 50 to 100 uM by TUNEL staining based confocal microscopic analysis. In kind it is functional, cell-based. The settings on record: dose microM 50-100.
Data set [17] has as its system Chorioallantoic membrane. Description: Induction of angiogenesis in chicken chorioallantoic membrane at 50 to 100 uM by CAM assay. The arrangement: species or system Gallus gallus. The settings on record: dose 50-100 µM.
Data set [18] concerns Chorioallantoic membrane. The experiment in a line: Induction of angiogenesis in chicken chorioallantoic membrane at 200 uM by CAM assay. The arrangement: species or system Gallus gallus.
Data set [19] has as its target T1, Myeloperoxidase (Homo sapiens) (UniProt P05164).
T1 sequence (whole entry): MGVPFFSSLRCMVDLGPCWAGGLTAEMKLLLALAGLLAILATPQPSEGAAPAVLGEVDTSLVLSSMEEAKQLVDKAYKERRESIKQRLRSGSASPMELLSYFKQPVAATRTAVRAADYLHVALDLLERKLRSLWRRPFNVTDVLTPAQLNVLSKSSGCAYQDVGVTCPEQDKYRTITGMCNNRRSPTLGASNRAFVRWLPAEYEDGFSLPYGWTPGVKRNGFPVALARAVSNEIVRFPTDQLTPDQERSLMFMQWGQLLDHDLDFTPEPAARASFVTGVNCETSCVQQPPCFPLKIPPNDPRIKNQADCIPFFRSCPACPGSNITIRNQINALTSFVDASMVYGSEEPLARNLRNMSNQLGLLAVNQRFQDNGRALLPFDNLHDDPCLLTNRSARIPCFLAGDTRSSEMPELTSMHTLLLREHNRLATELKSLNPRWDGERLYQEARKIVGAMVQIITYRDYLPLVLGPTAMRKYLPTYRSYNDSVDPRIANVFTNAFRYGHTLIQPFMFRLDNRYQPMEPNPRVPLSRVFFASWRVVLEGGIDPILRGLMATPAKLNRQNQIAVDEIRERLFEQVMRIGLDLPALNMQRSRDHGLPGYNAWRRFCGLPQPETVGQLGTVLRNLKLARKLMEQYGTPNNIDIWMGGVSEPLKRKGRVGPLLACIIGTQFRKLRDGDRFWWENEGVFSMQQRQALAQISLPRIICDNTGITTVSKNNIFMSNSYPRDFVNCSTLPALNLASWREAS
Description: Effect on MPO in human A549 cells assessed as reduction in chlorination activity at 10 uM measured after 3 to 12 hrs by fluorescence assay. The settings on record: filed as modulator, time hrs 3-12. It is filed as cell-based.

Data set [20] has as its target T1, Myeloperoxidase (Homo sapiens). Description: Effect on MPO in human A549 cells assessed as reduction in peroxidation activity at 10 uM measured after 3 to 12 hrs by fluorescence assay. It is filed as cell-based. Particulars: filed as modulator, time hrs 3-12.
A short description of data set [21]: Drug uptake in LPS stimulated mouse RAW264.7 cells assessed as increase in HOCL mediated fluorescence intensity at 1 uM after 1 hr by confocal microscopic analysis. It is filed as ADME. Particulars: raw264.7, 1 h.

The source made the active and inactive calls. The calls are words filed in the database; no cut-off is given here.

On to `O=c1[nH]cc(F)c(=O)[nH]1`, for which the result in [1] and in [2] was Active.
As usually defined, the IC50 is the concentration that gives 50% inhibition. On to `CCN(CC)c1ccc2cc(C3Nc4cccc5cccc(c45)N3)c(=O)oc2c1`, for which the Activity result in data set [3] is “Non-Toxic”; in [4] it was 61%; in data set [5], 50.5%; in data set [14], “Non-Toxic”; in data set [17], “Non-Toxic”; in [18] it was “Non-Toxic”. The Stabilty result in data set [6] is “Stable”. The result in data set [7], in [8], in [11], in [12], in data set [13] and in data set [15] was Active. Moreover, the result in [16], in data set [19] and in [20] was Active. Further, in data set [9], the IC50 worked out at 4.3 µM. Moreover, in data set [10], the outcome was inactive. Also, the Drug uptake result in data set [21] is given as “Active”.

Values taken from ChEMBL document CHEMBL4725296, “The novel HOCl fluorescent probe CAN induced A549 apoptosis by inhibiting chlorination activity of MPO” (Bioorg Med Chem Lett, 2020).
